In publication PMC3150281, “Two Group A Streptococcal Peptide Pheromones Act through Opposing Rgg Regulators to Control Biofilm Development” (PLoS Pathogens, 2011):

How the values were obtained:
[1] = tested on: Pshp3 luxAB reporter; assay: Luciferase reporter assay, Pshp3-luxAB, with synthetic peptides; assay type: cell-based, Streptococcus pyogenes NZ131; settings: for Induction of luciferase activity at Pshp3 / Induction of luciferase at Pshp3 in wild-type bacteria: 50 nM peptide in CDM; for Induction of luciferase activity at Pshp3: crude peptide (31-50% pure), DMSO vehicle control, representative of at least three experiments; for Induction of luciferase at Pshp3 in wild-type bacteria: wild-type reporter strain JCC174 (mutated shp3 start codon); for Response at Pshp3 in Δrgg2 strain: Δrgg2 reporter strain JCC175
Method: (§1) Figure 3 SHP stimulation of luciferase production. For panels A and C, overnight GAS cultures were diluted into CDM and followed for growth and light production over time. For panels B and D-H, reporter strains were grown to log-phase (OD600 between 0.3 and 0.5) and then diluted 13-fold into conditioned (panel B) or fresh CDM containing 50 nM of the indicated peptide (panels D-H). For all synthetic peptide experiments, DMSO was included as a vehicle control. Data shown are representative of at least three independent experiments. (A) Expression of shp3 under its own promoter from a multi-copy plasmid (pSHP3) induces luciferase expression at both Pshp2 (triangles) and Pshp3 (squares); pLZ12-Sp is the vector-only control. (B) Luciferase-inducing activity is present in a cell-free culture supernatant prepared from mid-log phase Δrgg3 donor (JCC131) but not in wild-type (NZ131) or Δrgg3-shp3 (JCC132)-conditioned supernatants; Δrgg3-shp3 (JCC159) was used as the reporter strain, and fresh medium was included as a control. (C) Luciferase activity of a Δrgg3-shp3 strain (JCC168) expressing truncated versions of shp3 indicates the importance of the C-terminus. All truncation plasmids were derived from pSHP3; pSHP3_17-23 includes a methionine to initiate translation. (D) Synthetic full-length (sSHP3) and C-terminal eight amino acids (sSHP3-C8), but not reverse peptide (sSHP3-rev), induce luciferase activity in a Δrgg3-shp3 reporter strain (JCC168). (E) Amino acid substitutions within the C-terminus of SHP3 alter its reporter-inducing activity in a Δrgg3-shp3 reporter strain (JCC168). sSHP3-C8: DIIIIVGG; the sequences of synthetic peptides with amino acids substitutions are shown in the panel legend. […] Reverse peptide (sSHP2-C8-rev) was included as a control. (G) sSHP3-C8 induces a sustained response from the Pshp2 reporter in the wild-type strain (BNL148), while luciferase activity of a Δrgg3-shp3 strain (BNL150) wanes. (H) Synthetic C8 peptides stimulate modest luciferase activity in Δrgg2 strains with integrated Pshp2 (solid lines; BNL152) or Pshp3 (dotted lines; JCC175) reporters.
(§2) For luciferase assays, isolated colonies from the strains of interest were picked from a freshly streaked plate, inoculated into THY broth and grown overnight at 30°C. In the morning, cells were diluted 100-fold into CDM and incubated at 37°C. At each time point, 50 µL of each culture was removed to an opaque 96-well plate, samples were exposed to decyl aldehyde (Sigma) fumes for one minute, and counts per second (CPS) were quantified using a Wallac 1450 microbeta scintillation counter; the optical density (OD) at 600 nm was also measured at each time point. Relative light units (RLU) were calculated by normalizing CPS to OD. For the conditioned media experiment, strains of interest were grown in CDM to an OD of 0.3 to 0.5, cells were spun down, and supernatants were passed through a 0.22 µm filter; log-phase Δrgg3-shp3 reporter cells (JCC159) were diluted 1∶12 into conditioned supernatants, and light activity and OD were monitored as described above. For experiments with synthetic peptides, reporter strains were grown to an OD of 0.3 to 0.5 and then diluted into fresh CDM containing the peptide of interest, and light activity and OD were monitored as described above.
Synthetic peptides were purchased from Neo-Peptide (Cambridge, MA). Purities of crude preparations used in luciferase assays ranged from 31% to 50%. 95% pure preparations were used for electrophoretic mobility shift assays (EMSA) as described below. All peptides were reconstituted as 2 mM stocks in DMSO and stored in aliquots at -80°C. Subsequent dilutions for working stocks (50 µM) were made in DMSO and stored at −20°C.

[2] = tested on: Rgg3-Pshp2 DNA complex; assay: EMSA, effect of peptide on Rgg3 binding to Pshp2 probe; set-up: species or system Streptococcus pyogenes NZ131; settings: 2 µM pure (>95%) peptide added 20 min after 10 nM FAM probe; room temperature; native PAGE
Method: (§3) The NZ131 rgg3 gene (Spy 49_0449c) was amplified using gene-specific primers (rgg3_fwd_NdeI/rgg3_rev_BamHI) and cloned into a modified pET expression vector bearing N-terminal His-6 and SUMO tags; the resulting vector, pCA102, was electroporated into E. coli C41(DE3) before each purification. Expression of His6-sumo-rgg3 was induced at an OD600 of 0.8 with 0.5 mM IPTG for six hours at 30°C. Cells were pelleted and suspended in Buffer A (20 mM sodium phosphate buffer, pH 7.5; 1.5 mM MgCl2, 280 mM NaCl, 20 mM imidazole, 10 mM β-mercaptoethanol) with 0.1 mg mL^−1 lysozyme, 0.01 mg mL^−1 DNaseI (Sigma) and Complete EDTA-free protease inhibitor (Roche). Cells were disrupted by sonication on ice, and cellular debris was removed by centrifugation at 45,000 x g for 20 min at 4°C. His6-SUMO-Rgg3 was adsorbed to a HisTrap-HP Nickel column (GE Biosciences), then washed with 50 mM imidazole and eluted with 300 mM imidazole. The eluate was immediately exchanged into fresh Buffer A using a Zeba spin desalting column, 7K MWCO (Thermo Scientific). […]
(§4) All DNA fragments for EMSAs were amplified from chromosomal NZ131 DNA by PCR using primers described in Table S1, with select primers containing 5′-FAM fluorescent tags (Integrated DNA Technologies). […] All gel shifts were detected by fluorescence imaging using a Typhoon PhosphorImager (GE Life Sciences).

[3] = tested on: Pshp2 luxAB reporter; assay: Luciferase reporter assay, Pshp2-luxAB, with synthetic peptides; assay type: cell-based, Streptococcus pyogenes NZ131; settings: for Induction of luciferase at Pshp2 in wild-type bacteria: wild-type reporter strain BNL148, 50 nM peptide in CDM; for Maximal induction at Pshp2 in Δrgg2 strain: Δrgg2 reporter strain BNL152
Method: as §1, §2
Synthetic peptides were purchased from Neo-Peptide (Cambridge, MA). Purities of crude preparations used in luciferase assays ranged from 31% to 50%. […]

[4] = tested on: GAS NZ131 biofilm biomass; assay: Biofilm assay, crystal violet staining; assay type: cell-based, Streptococcus pyogenes NZ131; settings: 50 nM peptide
Method: Figure 6 Influence of Rgg regulators on biofilm production. SHPs can enhance biofilm biogenesis via the Rgg2/3 regulatory circuit and counter biofilm disassembly promoted by RopB. Crystal violet staining was performed to measure biofilm biomass of NZ131 derivatives grown 48 hours in 24-well polystyrene plates with (dark gray bars) or without (light gray bars) the addition of 50 nM sSHP3-C8. Levels of biofilm production were normalized to that of untreated NZ131 (wild type). Error bars indicate standard error from a minimum of three independent experiments.
Assays were performed as described by Manetti et al, with slight modifications. Briefly, each strain was grown overnight in THY at 30°C, diluted 1∶10 into fresh CDM, and 0.5 mL volumes were aliquoted to three separate wells of a 24-well polystyrene plate. When indicated, synthetic peptide was added to a final concentration of 50 nM. Plates where incubated at 37°C with 5% CO2 for 24 hours, then wells were washed with PBS and fresh CDM (containing peptide, if appropriate) was added. After an additional 24 hours of growth, each well was washed three times with PBS and stained with 0.2% crystal violet for 10 min. Excess crystal violet was aspirated off, and biofilms were washed three times with PBS. The biomass was then suspended in 1% SDS, and the absorbance at 540 nm was measured. Each strain was tested a minimum of three independent times on separate days, and each trial included NZ131 as the reference strain.

[5] = tested on: Rgg3-Pshp3 DNA complex; assay: EMSA, effect of peptide on Rgg3 binding to Pshp3 probe; set-up: species or system Streptococcus pyogenes NZ131; settings: 2 µM pure (>95%) peptide added 20 min after 10 nM FAM probe; room temperature; native PAGE
Method: as §3, §4

[6] = tested on: Rgg3 (Streptococcus pyogenes NZ131 (serotype M49)); assay: EMSA; settings: 20 mM HEPES pH 7.9, 100 mM KCl, 12.5 mM MgCl2, 0.2 mM EDTA, 0.5 mM DTT, 0.5 mM CaCl2, 50 ug/mL salmon sperm DNA, 0.001 U/uL poly(dI-dC), 100 ug/mL BSA, 12% …
[7] = Δrgg3-shp3 reporter strain JCC168

-IIIIVGG [sSHP3-C8 without the N-terminal aspartic acid]
Induction of luciferase activity at Pshp3 [1, 7]: complete loss of luciferase activity

DIIIIVG- [sSHP3-C8 without the C-terminal glycine]
Induction of luciferase activity at Pshp3 [1, 7]: significantly decreased light activity

DIIIIVGG [sSHP3-C8, synthetic peptide containing the C-terminal eight amino acids of SHP3 (DIIIIVGG)]
Disruption of Rgg3 binding to Pshp2 DNA [2]: Rgg3-DNA complexes were disrupted | Induction of luciferase at Pshp2 in wild-type bacteria [3]: stimulate induction and cross-induction | Maximal induction at Pshp2 in Δrgg2 strain ([3]; 50 nM peptide): ~40 fold | Luciferase activity at Pshp2 over time in Δrgg3-shp3 strain ([3]; Δrgg3-shp3 reporter strain BNL150, 50 nM peptide, compared with wild type BNL148): wanes | Biofilm formation, wild-type NZ131 ([4]; 48 hours in CDM, 24-well polystyrene plates, normalized to untreated NZ131, minimum of three experiments): two-fold increase | Biofilm production, ΔoppD mutant ([4]; ΔoppD (JCC135), 48 hours, crystal violet): could not stimulate biofilms | Biofilm production, Δrgg2 mutant ([4]; Δrgg2 (JCC137), 48 hours, crystal violet): could not stimulate biofilms | Biofilm production, Δrgg3 mutant ([4]; Δrgg3 (JCC131), 48 hours, crystal violet): did not further enhance biofilms | Biofilm production, Δrgg3-shp3 mutant ([4]; Δrgg3-shp3 (JCC132), 48 hours, crystal violet): partially complemented | Biofilm biomass, ΔropB strain ([4]; ΔropB (BNL146), 48 hours, crystal violet): increased six-fold | Induction of luciferase at Pshp3 in wild-type bacteria [1]: stimulate induction and cross-induction | Response of Pshp3 reporter in ΔoppD mutant ([1]; ΔoppD reporter strain JCC163, 50 nM peptide, response restored by pOppD): fails to respond | Response at Pshp3 in Δrgg2 strain ([1]; 50 nM peptide): no response | Induction of luciferase activity at Pshp3 [1, 7]: Luciferase induction was also observed | Reporter induction relative to sSHP3 at identical molar concentrations ([1]; Δrgg3-shp3 reporter strain JCC168, Pshp3, 50 nM peptide): more than 10 fold | Disruption of Rgg3 binding to Pshp3 DNA [5]: Rgg3-DNA complexes were disrupted

EIIIIVGG [sSHP3-C8 with aspartic acid substituted by glutamate]
Induction of luciferase activity at Pshp3 [1, 7]: retained full activity

NIIIIVGG [sSHP3-C8 with aspartic acid replaced by asparagine]
Induction of luciferase activity at Pshp3 [1, 7]: decreased activity

Pshp2 probe
K half [6]: 100 nM

Pshp3 probe
K half [6]: 100 nM

sSHP2-C8: synthetic C-terminal eight amino acids of SHP2 (DILIIVGG)
Disruption of Rgg3 binding to Pshp2 DNA [2]: only induced a small amount of disruption | Induction of luciferase at Pshp2 in wild-type bacteria [3]: stimulate induction and cross-induction | Maximal induction at Pshp2 in Δrgg2 strain ([3]; 50 nM peptide): 7 fold | Induction of luciferase at Pshp3 in wild-type bacteria [1]: stimulate induction and cross-induction | Response at Pshp3 in Δrgg2 strain ([1]; 50 nM peptide): no response | Disruption of Rgg3 binding to Pshp3 DNA [5]: only induced a small amount of disruption
